Test [1] concerns CRH-R1 mRNA. The test is described as follows: CRH-R1 isoform expression by nested RT-PCR in treated HaCaT immortalized keratinocytes. The class given is cell-based, human. As to conditions: 24 hours, result in words. The procedure:
(§1) In some experiments, SKMEL188, HaCaT and C4-1 cells were also treated with TPA, forskolin or a mixture of IBMX (3-isobutyl-1-methylxanthine) and dbcAMP (N6, 2′-O-dibutyryladenosine 3′:5′-cyclic monophosphate sodium) (all from Sigma). Briefly, the cells were transferred to 75 cm^2 flasks ( 10^6 cells/flask) and cultured for 24 hours in standard culture medium. Then the following compounds were added to the separate cultures: TPA (200 nM), forskolin (10^−5 M), IBMX (5×10^−4 M), and dbcAMP (10^−3 M). Controls were represented by untreated cultures. The cells were incubated for 24 hours, detached, collected by centrifugation, and dissolved in RNA isolation solution (Trizol reagent).
(§2) Total RNA was extracted using a Trizol isolation kit (Gibco-BRL, Gaithersburg, Md.). The synthesis of first-strand cDNA was performed using the Superscript preamplification system (Gibco-BRL). Five μg of total RNA per reaction was reverse transcribed using oligo(dT) as the primer.
(§3) Nested PCR was used to detect different CRH-R1 isoforms. The first round of amplification of the human CRH-R1 fragment spanning exons 2–7 was conducted using 2 μl of cDNA and primers P110: 5′-[…]-3′ (sense) (SEQ ID No. 15) and P111: 5′-[…]-3′ (antisense) (SEQ ID No. 16). An aliquot of the PCR mixture from the first round of amplification was transferred to a new tube, and a second round of PCR was conducted. […]

In test [2] the test system is CRH-R1 mRNA. The test is described as follows: CRH-R1 isoform expression by nested RT-PCR in treated SKMEL188 melanoma cells. It is filed as cell-based. As to conditions: human melanoma cells SKMEL188; 24 hours; result in words. The protocol:
as §1, §2, §3

For another test, the target named is T1, CRH-R1α (Homo sapiens, UniProt P34998).
T1 construct: expressed in transfected cells; host or cells: COS cells, transient transfection with pCRFR1α
T1 sequence (P34998 24-415): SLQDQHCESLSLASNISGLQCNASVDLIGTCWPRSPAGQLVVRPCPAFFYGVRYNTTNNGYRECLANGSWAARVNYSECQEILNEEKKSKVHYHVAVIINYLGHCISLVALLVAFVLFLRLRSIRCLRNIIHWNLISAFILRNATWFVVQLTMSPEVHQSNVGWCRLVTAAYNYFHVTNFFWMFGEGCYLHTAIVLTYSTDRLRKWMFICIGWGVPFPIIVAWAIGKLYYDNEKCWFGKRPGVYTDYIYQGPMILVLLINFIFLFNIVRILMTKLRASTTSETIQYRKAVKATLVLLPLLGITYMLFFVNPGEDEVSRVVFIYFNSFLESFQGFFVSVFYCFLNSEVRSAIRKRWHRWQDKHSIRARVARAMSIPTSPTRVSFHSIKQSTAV
The test is described as follows: cAMP accumulation in CRF or urocortin-stimulated COS cells cotransfected with CRH-R1α and isoform e or h. The class given is cell-based. As to conditions: coexpression of the isoform with CRH-R1α, FIG. 7C. The procedure: COS cells were propagated in DMEM medium (GIBCO) supplemented with 10% Fetal Bovine serum and antibiotics (GIBCO). Ten thousand cells were routinely transfected in each well of opaque 96-well plate (Packard) by Lipophectamine (Invitrogen, Carlsbad, Calif.) according to the manufacturer's protocol.
Receptor isoforms e and h were tested for their ability to produce soluble forms of the CRH receptor that would affect the activity of the most prevalent CRH-R1α isoform. To allow detection by immunoblotting, a cDNA for the V5 protein was attached to the cDNA for the isoforms in the constructs. The constructs were thus transfected into COS cells and tested as to whether the isoform messages were translatable, and whether cotransfection of CRH-R1α with CRH-R1e or h affects the activity of CRH-R1α.
Cyclic AMP concentration was measured by a cAMP functional assay kit (Packard BioScience, Meriden, Conn.). Stimulated cells were washed 3 times by PBS and incubated for 1 hour in 25 μl of lysis buffer at room temperature. The signal was measured using a Fusion α instrument (Packard BioScience), and cAMP concentrations were recalculated from the standard curve.
A general note: cAMP levels reflect the balance of adenylyl cyclase and phosphodiesterase activity.

As to `CCCCCCCCCCCCCC(=O)O[C@@H]1[C@@H](C)[C@@]2(O)[C@@H](C=C(CO)C[C@]3(O)C(=O)C(C)=C[C@@H]23)[C@@H]2C(C)(C)[C@]12OC(C)=O` [TPA, phorbol 12-myristate 13-acetate], the “change of CRH-R1 splicing pattern versus untreated control” value in the test on CRH-R1 mRNA [1] was “induced insertion of a 110 bp fragment between exons 4 and 5 of CRH-R1”; with CRH-R1 mRNA [2], “shifted the CRH-R1 splicing pattern from the CRH-R1d to the CRH-R1α isoform”.

B1: CRH-R1h: human CRH receptor type 1 isoform with cryptic exon between exons 4 and 5; truncated protein with CRH-binding domain only (protein, listed as Homo sapiens)
chain: MGGHPQLRLVKALLLLGLNPVSASLQDQHCESLSLASNISGLQCNASVDLIGTCWPRSPAGQLVVRPCPAFFYGVRYNTTNNGYRECLANGSWAARVNYSECQEILNEEEPGTQAQPGRAHRGGT
modifications: amino acid sequence of human CRH-R1h gene GenBank Accession No. AF374231
With B1, the “CRH or urocortin-stimulated cAMP accumulation mediated by CRF-R1α” value with CRH-R1α is on record as “inhibits”; in the test with CRH-R1α (listed as CRF-R1h) it was “stimulates”.

(Values after patent US7071161B2, “Variants of corticotropin releasing hormone receptor Type 1 and uses thereof” (The University of Tennessee Research Corporation, priority 2001, dated 2006).)
